Measured values: BindingDB's records for doi:10.1016/j.ejmech.2014.06.017 (University of Messina, 2014)

Experiment: Inhibition of PGPH-like activity of 20S proteasome in human erythrocytes using Z-Leu-Leu-Glu-AMC as substrate by fluorescence assay

Row | SMILES | Ki [nM]
1 | CC(C)C[C@H](NC(=O)Cn1ccc2ccccc2c1=O)B(O)O | 990
2 | COc1cc2ccn(CCC(=O)N[C@@H](CC(C)C)B(O)O)c(=O)c2cc1OC | 1250
3 | CC(C)C[C@H](NC(=O)CCn1ccc2ccc(Br)cc2c1=O)B(O)O | 2040

Continued by falling Ki, values first:

Row | Ki [nM] | SMILES
4 | 690 | CC(C)C[C@H](NC(=O)CCn1ccc2ncccc2c1=O)B(O)O
5 | 310 | CC(C)C[C@H](NC(=O)Cn1ccc2ccc(Br)cc2c1=O)B(O)O
6 | 240 | CC(C)C[C@H](NC(=O)CCn1ccc2ccccc2c1=O)B(O)O
